Source: ChEMBL document CHEMBL5291721, “A preclinical secondary pharmacology resource illuminates target-adverse drug reaction associations of marketed drugs” (Nat Commun, 2023)

Tests used:
Adenosine receptor A1 = target: T1, Adenosine receptor A1 (Homo sapiens, UniProt P30542)
T1 sequence (P30542 whole entry): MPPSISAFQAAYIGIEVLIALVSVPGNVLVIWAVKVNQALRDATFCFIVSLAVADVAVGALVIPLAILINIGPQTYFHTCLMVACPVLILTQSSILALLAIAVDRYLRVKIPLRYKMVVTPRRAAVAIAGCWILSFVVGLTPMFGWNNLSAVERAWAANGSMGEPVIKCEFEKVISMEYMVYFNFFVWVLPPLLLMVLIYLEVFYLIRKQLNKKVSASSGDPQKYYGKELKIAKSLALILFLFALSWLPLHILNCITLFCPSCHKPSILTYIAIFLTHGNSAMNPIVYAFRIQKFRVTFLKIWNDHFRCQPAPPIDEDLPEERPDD

Adenosine receptor A3 = target: T2, Adenosine receptor A3 (Homo sapiens, UniProt P0DMS8)
T2 sequence (P0DMS8 whole entry): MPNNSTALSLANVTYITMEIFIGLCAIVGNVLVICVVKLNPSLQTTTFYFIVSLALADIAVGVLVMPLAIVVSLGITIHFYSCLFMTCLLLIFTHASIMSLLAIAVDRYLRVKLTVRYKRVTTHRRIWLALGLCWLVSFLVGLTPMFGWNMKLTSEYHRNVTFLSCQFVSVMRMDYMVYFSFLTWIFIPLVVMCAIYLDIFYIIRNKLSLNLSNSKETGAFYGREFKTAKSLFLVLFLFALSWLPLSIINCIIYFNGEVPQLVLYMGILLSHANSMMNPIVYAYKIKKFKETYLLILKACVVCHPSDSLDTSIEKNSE

Histamine H3 receptor = Histamine H3 receptor (Homo sapiens, UniProt Q9Y5N1)
[1] = target: T3, Type-1 angiotensin II receptor (Homo sapiens, UniProt P30556)
T3 sequence (P30556 whole entry): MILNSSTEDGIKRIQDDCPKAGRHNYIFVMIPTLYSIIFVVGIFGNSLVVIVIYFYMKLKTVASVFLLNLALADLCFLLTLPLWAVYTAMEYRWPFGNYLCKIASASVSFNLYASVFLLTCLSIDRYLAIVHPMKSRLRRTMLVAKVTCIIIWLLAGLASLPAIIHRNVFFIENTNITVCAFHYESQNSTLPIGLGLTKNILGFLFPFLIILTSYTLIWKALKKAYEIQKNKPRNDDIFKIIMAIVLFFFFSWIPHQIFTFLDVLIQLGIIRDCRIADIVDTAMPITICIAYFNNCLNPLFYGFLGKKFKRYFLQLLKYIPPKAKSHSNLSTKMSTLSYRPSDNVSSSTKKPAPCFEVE

[2] = target: T4, Amine oxidase [flavin-containing] A (Homo sapiens, UniProt P21397); format: functional
T4 sequence (P21397 whole entry): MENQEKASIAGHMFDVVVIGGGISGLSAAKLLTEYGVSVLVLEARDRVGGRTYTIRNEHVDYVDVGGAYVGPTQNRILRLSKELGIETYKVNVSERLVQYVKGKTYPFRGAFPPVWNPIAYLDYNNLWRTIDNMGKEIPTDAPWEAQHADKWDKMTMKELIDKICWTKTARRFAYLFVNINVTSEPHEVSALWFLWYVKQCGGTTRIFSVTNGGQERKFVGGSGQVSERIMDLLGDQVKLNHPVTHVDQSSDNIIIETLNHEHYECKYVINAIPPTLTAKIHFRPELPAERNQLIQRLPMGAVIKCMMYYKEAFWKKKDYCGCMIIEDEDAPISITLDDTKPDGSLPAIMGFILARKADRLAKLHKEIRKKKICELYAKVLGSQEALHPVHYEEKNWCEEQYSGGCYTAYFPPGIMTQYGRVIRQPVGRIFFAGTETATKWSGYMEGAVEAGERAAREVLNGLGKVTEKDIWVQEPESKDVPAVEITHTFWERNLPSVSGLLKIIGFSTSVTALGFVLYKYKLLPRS

D(1A) dopamine receptor = D(1A) dopamine receptor (Homo sapiens, UniProt P21728); format: functional, cell-based
[3] = target: T5, 5-hydroxytryptamine receptor 3A (Homo sapiens, UniProt P46098); format: functional
T5 sequence (P46098 whole entry): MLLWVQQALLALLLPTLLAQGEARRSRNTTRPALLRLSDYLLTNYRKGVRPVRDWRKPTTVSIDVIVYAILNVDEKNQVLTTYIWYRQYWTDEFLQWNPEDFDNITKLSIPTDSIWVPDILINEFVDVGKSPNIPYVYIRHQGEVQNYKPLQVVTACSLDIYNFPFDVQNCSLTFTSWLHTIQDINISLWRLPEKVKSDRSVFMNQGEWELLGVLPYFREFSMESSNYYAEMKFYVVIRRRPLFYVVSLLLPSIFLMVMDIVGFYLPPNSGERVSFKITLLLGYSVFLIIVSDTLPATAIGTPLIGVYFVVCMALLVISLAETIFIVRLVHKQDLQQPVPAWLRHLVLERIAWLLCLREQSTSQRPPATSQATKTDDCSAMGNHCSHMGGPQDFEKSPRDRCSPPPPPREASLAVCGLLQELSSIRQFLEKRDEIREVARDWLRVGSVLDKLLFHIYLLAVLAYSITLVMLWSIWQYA

[4] = target: T6, Alpha-2A adrenergic receptor (Homo sapiens, UniProt P08913); format: functional, cell-based
T6 sequence (P08913 whole entry): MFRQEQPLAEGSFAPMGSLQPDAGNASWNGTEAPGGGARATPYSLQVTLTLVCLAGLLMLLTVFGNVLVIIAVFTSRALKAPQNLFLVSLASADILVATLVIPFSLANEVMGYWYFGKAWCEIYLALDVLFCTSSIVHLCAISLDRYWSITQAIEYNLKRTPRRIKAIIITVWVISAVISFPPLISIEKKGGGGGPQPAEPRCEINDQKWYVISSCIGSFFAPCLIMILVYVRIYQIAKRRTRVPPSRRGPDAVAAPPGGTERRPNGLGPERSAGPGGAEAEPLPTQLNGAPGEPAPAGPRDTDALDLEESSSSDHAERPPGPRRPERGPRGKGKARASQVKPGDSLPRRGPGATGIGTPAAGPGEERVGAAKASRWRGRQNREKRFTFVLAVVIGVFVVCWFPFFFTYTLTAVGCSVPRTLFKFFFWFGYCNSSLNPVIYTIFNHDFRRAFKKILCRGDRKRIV

[5] = target: Voltage-dependent L-type calcium channel subunit alpha-1C (Rattus norvegicus, UniProt P22002); format: functional
Note: assay procedure not described here.

Chain of D(1A) dopamine receptor (P21728 whole entry): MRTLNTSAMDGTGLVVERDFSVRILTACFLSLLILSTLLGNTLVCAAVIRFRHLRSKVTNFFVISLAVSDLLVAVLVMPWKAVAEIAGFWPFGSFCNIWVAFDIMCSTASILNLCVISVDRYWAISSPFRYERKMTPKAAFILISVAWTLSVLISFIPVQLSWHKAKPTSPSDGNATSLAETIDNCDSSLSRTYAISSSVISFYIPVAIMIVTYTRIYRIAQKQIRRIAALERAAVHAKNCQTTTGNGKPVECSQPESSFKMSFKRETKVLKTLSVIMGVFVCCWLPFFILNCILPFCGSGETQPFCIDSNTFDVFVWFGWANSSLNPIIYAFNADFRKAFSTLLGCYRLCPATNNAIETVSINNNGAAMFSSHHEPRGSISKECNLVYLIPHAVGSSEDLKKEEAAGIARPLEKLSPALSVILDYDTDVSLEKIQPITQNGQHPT
Chain of Histamine H3 receptor (Q9Y5N1 whole entry): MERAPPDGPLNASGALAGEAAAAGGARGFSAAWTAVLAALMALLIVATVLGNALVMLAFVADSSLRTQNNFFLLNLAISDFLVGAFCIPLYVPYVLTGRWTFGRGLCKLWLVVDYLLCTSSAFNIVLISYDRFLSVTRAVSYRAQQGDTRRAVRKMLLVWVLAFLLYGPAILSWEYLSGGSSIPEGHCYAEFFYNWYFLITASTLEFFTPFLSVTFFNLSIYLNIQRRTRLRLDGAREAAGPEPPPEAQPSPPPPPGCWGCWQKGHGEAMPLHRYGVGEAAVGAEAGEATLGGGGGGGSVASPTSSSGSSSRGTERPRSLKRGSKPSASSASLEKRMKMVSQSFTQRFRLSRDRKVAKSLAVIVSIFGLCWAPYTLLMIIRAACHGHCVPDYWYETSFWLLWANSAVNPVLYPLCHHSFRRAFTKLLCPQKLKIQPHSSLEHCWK
Chain of Voltage-dependent L-type calcium channel subunit alpha-1C (P22002 whole entry): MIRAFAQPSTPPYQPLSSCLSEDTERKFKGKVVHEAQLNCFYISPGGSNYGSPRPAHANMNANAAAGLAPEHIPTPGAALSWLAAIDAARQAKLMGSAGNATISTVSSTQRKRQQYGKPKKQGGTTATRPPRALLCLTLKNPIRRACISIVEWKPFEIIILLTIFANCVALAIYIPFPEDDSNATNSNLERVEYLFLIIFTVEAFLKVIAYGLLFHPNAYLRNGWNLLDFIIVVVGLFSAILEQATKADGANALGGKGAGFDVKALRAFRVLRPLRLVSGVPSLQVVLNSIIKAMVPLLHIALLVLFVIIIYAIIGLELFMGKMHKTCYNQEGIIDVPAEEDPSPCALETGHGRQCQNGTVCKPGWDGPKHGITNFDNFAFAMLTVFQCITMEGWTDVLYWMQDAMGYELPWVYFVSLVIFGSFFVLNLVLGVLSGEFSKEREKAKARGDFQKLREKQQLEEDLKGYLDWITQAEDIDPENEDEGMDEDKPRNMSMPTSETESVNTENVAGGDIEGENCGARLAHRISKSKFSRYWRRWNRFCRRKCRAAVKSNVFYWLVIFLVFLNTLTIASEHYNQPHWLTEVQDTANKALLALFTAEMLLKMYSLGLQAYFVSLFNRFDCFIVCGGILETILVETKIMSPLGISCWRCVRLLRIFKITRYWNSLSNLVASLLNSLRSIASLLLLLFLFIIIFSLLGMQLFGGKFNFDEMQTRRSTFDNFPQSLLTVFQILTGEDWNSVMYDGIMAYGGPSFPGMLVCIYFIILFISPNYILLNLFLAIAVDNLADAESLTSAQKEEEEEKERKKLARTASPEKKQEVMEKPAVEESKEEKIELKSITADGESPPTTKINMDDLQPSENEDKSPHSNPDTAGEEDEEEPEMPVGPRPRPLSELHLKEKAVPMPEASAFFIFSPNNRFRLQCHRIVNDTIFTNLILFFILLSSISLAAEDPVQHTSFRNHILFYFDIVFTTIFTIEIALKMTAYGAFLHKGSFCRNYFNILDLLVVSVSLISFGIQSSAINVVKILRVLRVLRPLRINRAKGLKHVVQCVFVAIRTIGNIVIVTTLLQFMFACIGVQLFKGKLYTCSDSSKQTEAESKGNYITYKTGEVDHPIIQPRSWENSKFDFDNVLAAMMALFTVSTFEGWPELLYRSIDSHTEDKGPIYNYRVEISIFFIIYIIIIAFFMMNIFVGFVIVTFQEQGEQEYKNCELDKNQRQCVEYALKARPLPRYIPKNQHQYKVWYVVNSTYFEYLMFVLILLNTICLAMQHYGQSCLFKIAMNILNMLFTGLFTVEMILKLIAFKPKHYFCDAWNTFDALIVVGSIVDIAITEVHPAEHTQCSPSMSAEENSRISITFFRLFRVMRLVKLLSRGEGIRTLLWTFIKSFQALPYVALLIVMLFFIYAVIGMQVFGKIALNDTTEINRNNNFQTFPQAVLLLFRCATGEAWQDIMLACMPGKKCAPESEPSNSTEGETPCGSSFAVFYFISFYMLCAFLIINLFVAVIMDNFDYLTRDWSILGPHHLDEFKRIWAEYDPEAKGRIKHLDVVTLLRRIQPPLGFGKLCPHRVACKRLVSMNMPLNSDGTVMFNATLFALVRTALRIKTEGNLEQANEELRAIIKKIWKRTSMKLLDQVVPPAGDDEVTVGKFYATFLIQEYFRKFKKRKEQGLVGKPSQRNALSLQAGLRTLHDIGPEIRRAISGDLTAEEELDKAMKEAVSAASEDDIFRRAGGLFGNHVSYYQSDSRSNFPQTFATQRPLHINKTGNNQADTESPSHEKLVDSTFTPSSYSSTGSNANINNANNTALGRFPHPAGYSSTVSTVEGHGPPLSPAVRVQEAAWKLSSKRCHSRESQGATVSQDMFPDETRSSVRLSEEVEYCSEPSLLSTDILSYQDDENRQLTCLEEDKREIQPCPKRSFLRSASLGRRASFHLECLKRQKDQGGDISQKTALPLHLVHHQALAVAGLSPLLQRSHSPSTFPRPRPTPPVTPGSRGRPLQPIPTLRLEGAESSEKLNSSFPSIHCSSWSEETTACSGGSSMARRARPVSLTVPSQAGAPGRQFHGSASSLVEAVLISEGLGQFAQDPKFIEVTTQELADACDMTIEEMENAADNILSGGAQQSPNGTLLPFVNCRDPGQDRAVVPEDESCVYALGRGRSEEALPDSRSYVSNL

SMILES: CCC(CC)(CC(=O)Nc1cccc(/C=C/c2nc(C3CCC3)cs2)c1)C(=O)O
- AC50 (Adenosine receptor A1): > 30 µM
- AC50 (Adenosine receptor A3): 13.9 µM
- AC50 (Histamine H3 receptor): > 30 µM
- AC50 [1]: > 30 µM

SMILES: CCCCCNC(=N)N/N=C/c1c[nH]c2ccc(OC)cc12 [TEGASEROD]
- AC50 [2]: > 30 µM
- AC50 (Adenosine receptor A1): > 30 µM
- AC50 (D(1A) dopamine receptor): 0.34 µM
- AC50 [3]: > 30 µM
- AC50 (Adenosine receptor A3): 15.3 µM
- AC50 [4]: > 30 µM
- AC50 [5]: > 30 µM
- AC50 (Histamine H3 receptor): 27.2 µM
- AC50 [1]: 1.8 µM

SMILES: O=[N+]([O-])O[C@@H]1CO[C@H]2[C@@H]1OC[C@@H]2O [ISOSORBIDE MONONITRATE]
- AC50 [2]: > 10 µM
- AC50 (Adenosine receptor A1): > 30 µM
- AC50 (D(1A) dopamine receptor): > 10 µM
- AC50 [3]: > 30 µM
- AC50 (Adenosine receptor A3): > 30 µM
- AC50 [4]: > 10 µM
- AC50 [5]: > 10 µM
- AC50 (Histamine H3 receptor): > 10 µM
- AC50 [1]: > 30 µM

SMILES: CN(C)CC/C=C1\c2ccccc2CSc2ccccc21 [DOTHIEPIN]
- AC50 (Adenosine receptor A1): > 30 µM
- AC50 (D(1A) dopamine receptor): > 30 µM
- AC50 [3]: > 30 µM
- AC50 (Adenosine receptor A3): > 30 µM
- AC50 [4]: > 30 µM
- AC50 [5]: 24 µM
- AC50 (Histamine H3 receptor): 29 µM
- AC50 [1]: > 30 µM

SMILES: CC[C@@H](C(N)=O)N1CCCC1=O
- AC50 [2]: > 30 µM
- AC50 (Adenosine receptor A1): > 30 µM
- AC50 (D(1A) dopamine receptor): > 30 µM
- AC50 [3]: > 30 µM
- AC50 (Adenosine receptor A3): > 30 µM
- AC50 [4]: > 30 µM
- AC50 (Histamine H3 receptor): > 30 µM
- AC50 [1]: > 30 µM

SMILES: Cc1oc(=O)oc1CN1CCN(c2cc3c(cc2F)c(=O)c(C(=O)O)c2n3C(C)S2)CC1 (centres undefined) [PRULIFLOXACIN]
- AC50 [2]: > 30 µM
- AC50 (D(1A) dopamine receptor): > 30 µM
- AC50 [3]: > 30 µM
- AC50 [4]: > 30 µM

SMILES: CC(=O)c1ccc2c(c1)N(CCCN(C)C)c1ccccc1S2 [ACEPROMAZINE]
- AC50 (D(1A) dopamine receptor): > 30 µM

SMILES: COc1cc2nc(N3CCN(C(=O)c4ccco4)CC3)nc(N)c2cc1OC [PRAZOSIN]
- AC50 [2]: > 10 µM
- AC50 (Adenosine receptor A1): > 30 µM
- AC50 (D(1A) dopamine receptor): > 10 µM
- AC50 [3]: > 10 µM
- AC50 (Adenosine receptor A3): > 30 µM
- AC50 [5]: > 10 µM
- AC50 (Histamine H3 receptor): > 10 µM
- AC50 [1]: 7.8 µM

SMILES: COc1ccccc1N1CCN(CC(O)COc2cccc3ccccc23)CC1 (centres undefined) [NAFTOPIDIL]
- AC50 [2]: > 30 µM
- AC50 (D(1A) dopamine receptor): > 30 µM
- AC50 [3]: > 30 µM
- AC50 (Adenosine receptor A3): > 30 µM
- AC50 [4]: > 30 µM
- AC50 [5]: 6.3 µM

SMILES: CCOc1ccc(Cc2cc([C@@H]3O[C@H](CO)[C@@H](O)[C@H](O)[C@H]3O)ccc2Cl)cc1 [DAPAGLIFLOZIN]
- AC50 [2]: > 10 µM
- AC50 (Adenosine receptor A1): > 30 µM
- AC50 [3]: > 30 µM
- AC50 (Adenosine receptor A3): > 30 µM
- AC50 [5]: > 10 µM
- AC50 (Histamine H3 receptor): > 10 µM
- AC50 [1]: > 30 µM
